Experimental data: patent US11884687B2, “Boronated multifunctional targeting drug conjugates, their uses and methods for their preparation” (Hovione Scientia Limited, priority 2017, dated 2024)

Tests used:
[1] = test system: 4T1; assay: MTS cell viability assay (4T1); format: cell-based; details: Mus musculus, 4T1 cells
[2] = test system: MDA-MB-231 human breast cancer cells; assay: MTS cell viability assay (MDA-MB-231); format: cell-based; details: folate-receptor-positive MDA-MB-231 cells
[3] = in vivo; cited from earlier work

Structure (SMILES) | IC50 [1] | IC50 ([2]; Homo sapiens) | IC50 [2] | LD50 [3]
COCCOCCOCCOc1ccc2c(c1)C(C)=[N+]1c3ccc(C(=O)NCCN=[N+]=[N-])cc3O[B-]1([C@H](CC(C)C)NC(=O)[C@@H](Cc1ccccc1)NC(=O)c1cnccn1)O2 (stereo partly shown) [B-complex 7] | 670 nM | > 100 nM | – | –
COCCOCCOCCOc1ccc2c(c1)C(C)=[N+]1c3ccc(C(=O)NCCn4nnc5c4CC[C@H]4[C@@H](CC5)[C@H]4COC(=O)NCCNC(=O)CCC(NC(=O)c4ccc(NCc5cnc6nc(N)[nH]c(=O)c6n5)cc4)C(=O)O)cc3O[B-]1([C@H](CC(C)C)NC(=O)[C@@H](Cc1ccccc1)NC(=O)c1cnccn1)O2 (stereo partly shown) [B-complex 8] | – | – | 67.5 nM | –
CC1=[N+]2c3ccc(C(=O)NCCOCCOCCOCCN=[N+]=[N-])cc3O[B-]2([C@H](CC(C)C)NC(=O)[C@@H](Cc2ccccc2)NC(=O)c2cnccn2)Oc2ccc(OCCOCCOCCOCCN=[N+]=[N-])cc21 (stereo partly shown) [B-complex 9] | 7250 nM | > 100 nM | – | –
CC1=[N+]2c3ccc(C(=O)NCCOCCOCCOCCn4nnc5c4CCC4C(CC5)[C@@H]4COC(=O)NCCNC(=O)CC[C@H](NC(=O)c4ccc(NCc5cnc6nc(N)[nH]c(=O)c6n5)cc4)C(=O)O)cc3O[B-]2([C@H](CC(C)C)NC(=O)[C@@H](Cc2ccccc2)NC(=O)c2cnccn2)Oc2ccc(OCCOCCOCCOCCn3nnc4c3CC[C@H]3[C@@H](CC4)[C@H]3COC(=O)NCCNC(=O)CC[C@H](NC(=O)c3ccc(NCc4cnc5nc(N)[nH]c(=O)c5n4)cc3)C(=O)O)cc21 (stereo partly shown) [B-complex 10] | – | – | 62 nM | –
[Cl-].[Na+] [table salt] | – | – | – | 3000 mg/kg
